This assay has as its system CD8+ T cells. Briefly: In vitro immunogenicity of HLA-A*24 class I peptides: in vitro T-cell priming with aAPCs loaded with peptide/MHC complexes and anti-CD28 antibody, pMHC multimer readout. It is filed as cell-based, human. To be noted: given as a class symbol; for Donors: share of positive donors in the in vitro immunogenicity experiments; for Wells: share of positive wells in the in vitro immunogenicity experiments. As to the method: In order to obtain information regarding the immunogenicity of the TUMAPs of the present invention, we performed investigations using an in vitro T-cell priming assay based on repeated stimulations of CD8+ T cells with artificial antigen presenting cells (aAPCs) loaded with peptide/MHC complexes and anti-CD28 antibody.
Isolated CD8+ lymphocytes or PBMCs were incubated until use in T-cell medium (TCM) consisting of RPMI-Glutamax (Invitrogen, Karlsruhe, Germany) supplemented with 10% heat inactivated human AB serum (PAN-Biotech, Aidenbach, Germany), 100 U/ml Penicillin/100 μg/ml Streptomycin (Cambrex, Cologne, Germany), 1 mM sodium pyruvate (CC Pro, Oberdorla, Germany), 20 μg/ml Gentamycin (Cambrex). 2.5 ng/ml IL-7 (PromoCell, Heidelberg, Germany) and 10 U/ml IL-2 (Novartis Pharma, Nurnberg, Germany) were also added to the TCM at this step. Generation of pMHC/anti-CD28 coated beads, T-cell stimulations and readout was performed in a highly defined in vitro system using four different pMHC molecules per stimulation condition and 8 different pMHC molecules per readout condition. All pMHC complexes used for aAPC loading and cytometric readout were derived from UV-induced MHC ligand exchange with minor modifications. In order to determine the amount of pMHC monomer obtained by exchange we performed streptavidin-based sandwich ELISAs according to (Rodenko et al., 2006). The purified co-stimulatory mouse IgG2a anti human CD28 Ab 9.3 (Jung et al., 1987) was chemically biotinylated using Sulfo-N-hydroxysuccinimidobiotin as recommended by the manufacturer (Perbio, Bonn, Germany). Beads used were 5.6 μm diameter streptavidin coated polystyrene particles (Bangs Laboratories, Illinois, USA).
800.000 beads/200 μl were coated in 96-well plates in the presence of 4×12.5 ng different biotin-pMHC, washed and 600 ng biotin anti-CD28 were added subsequently in a volume of 200 μl. Stimulations were initiated in 96-well plates by co-incubating 1×10^6 CD8+ T cells with 2×10^5 washed coated beads in 200 μl TCM supplemented with 5 ng/ml IL-12 (PromoCell) for 3-4 days at 37° C. Half of the medium was then exchanged by fresh TCM supplemented with 80 U/ml IL-2 and incubating was continued for 3-4 days at 37° C. This stimulation cycle was performed for a total of three times, with 12 individual wells per condition For the pMHC multimer readout using 8 different pMHC molecules per condition, a two-dimensional combinatorial coding approach was used as previously described (Andersen et al., 2012) with minor modifications encompassing coupling to 5 different fluorochromes. Finally, multimeric analyses were performed by staining the cells with Live/dead near IR dye (Invitrogen, Karlsruhe, Germany), CD8-FITC antibody clone SK1 (BD, Heidelberg, Germany) and fluorescent pMHC multimers. For analysis, a BD LSRII SORP cytometer equipped with appropriate lasers and filters was used. Peptide specific cells were calculated as percentage of total CD8+ cells. Evaluation of multimeric analysis was done using the FlowJo software (Tree Star, Oregon, USA). In vitro priming of specific multimer+ CD8+ lymphocytes was detected by comparison to irrelevant control stimulations.
Exemplary flow cytometry results after TUMAP-specific multimer staining for two peptides of the invention are shown in FIG. 4 together with corresponding negative controls.

Take “QWAPILANF (listed as Homo sapiens) [NKA-001]”: the Donors result is reported as “++ (20%-49 % = ++)” and the Wells result is recorded as “+ (<20% = +)”.
In the same order, the values of “TYTSYLDKF (listed as Homo sapiens) [MAPK6-001]” are “++ (20%-49 % = ++)” and “+ (<20% = +)”.
For “NYTSLLVTW (listed as Homo sapiens) [PTP-018]”, the Donors result is “++++ (>70% = ++++)” and the Wells entry is reported as “+ (<20% = +)”.
Taken in the same sequence, the figures for “HYKPTPLYF (listed as Homo sapiens) [SMC4-001]” were “++ (20%-49 % = ++)” and “+ (<20% = +)”.
“AYVLRLETL (listed as Homo sapiens) [PNMA2-001]”: the Donors entry is given as “++ (20%-49 % = ++)” and the Wells result is reported as “+ (<20% = +)”.
In the same order, the values of “RYIPLIVDI (listed as Homo sapiens) [ARHGAP21-001]” are “++ (20%-49 % = ++)” and “+ (<20% = +)”.
“NYKDLNGNVF (listed as Homo sapiens) [SSR1-001]”: the Donors result is “++ (20%-49 % = ++)” and the Wells result is recorded as “+ (<20% = +)”.
With “RYLPSSVFL (listed as Homo sapiens) [ZNF749-001]”, the Donors entry was “++ (20%-49 % = ++)” and the Wells entry was “+ (<20% = +)”.
Take “KYNLINEYF (listed as Homo sapiens) [HS2-001]”: the Donors result is “++ (20%-49 % = ++)” and the Wells result is listed as “+ (<20% = +)”.
For “SYNPLWLRI (listed as Homo sapiens) [ASPM-002]”, the Donors entry was “+++ (50%-70% = +++)” and the Wells entry is “+ (<20% = +)”.
In the case of “NYQDTIGRL (listed as Homo sapiens) [VIM-002]”, the Donors result is “++ (20%-49 % = ++)” and the Wells result is recorded as “+ (<20% = +)”.
Regarding “VYDTMIEKF (listed as Homo sapiens) [PTP-016]”, the Donors entry is “++ (20%-49 % = ++)” and the Wells result is on record as “+ (<20% = +)”.
In the same order, the values of “RYQESLGNTVF (listed as Homo sapiens) [PJA2-001]” are “++ (20%-49 % = ++)” and “+ (<20% = +)”.
Taken in the same sequence, the figures for “AYLIDIKTI (listed as Homo sapiens) [IFT17-001]” were “+++ (50%-70% = +++)” and “+ (<20% = +)”.
As for “AFSPDSHYLLF (listed as Homo sapiens) [ITGA7-001]”, the Donors result is recorded as “++ (20%-49 % = ++)” and the Wells result is “+ (<20% = +)”.
Taken in the same sequence, the figures for “LYIYPQSLNF (listed as Homo sapiens) [DOCK7-002]” were “+++ (50%-70% = +++)” and “+ (<20% = +)”.
Take “EYMKALGVGF (listed as Homo sapiens) [FABP7-002]”: the Donors result was “++ (20%-49 % = ++)” and the Wells result is “+ (<20% = +)”.
Taken in the same sequence, the figures for “TYIPPLLVAF (listed as Homo sapiens) [TMEM231-001]” were “+++ (50%-70% = +++)” and “+ (<20% = +)”.
As to “RYSDGLLRF (listed as Homo sapiens) [LZTS1-001]”, the Donors entry is “++ (20%-49 % = ++)” and the Wells entry is reported as “+ (<20% = +)”.
Turning to “VLPDADTLLHF (listed as Homo sapiens) [APC-001]”, the Donors result is recorded as “++ (20%-49 % = ++)” and the Wells result is reported as “+ (<20% = +)”.
“AYSDGHFLF (listed as Homo sapiens) [TENM4-001]”: the Donors result is “++ (20%-49 % = ++)” and the Wells result was “+ (<20% = +)”.
As for “RYGPQFTL (listed as Homo sapiens) [PCD-002]”, the Donors result is recorded as “++ (20%-49 % = ++)” and the Wells entry is “+ (<20% = +)”.
Consider “YYPGVILGF (listed as Homo sapiens) [TMEM255A-001]”, for which the Donors entry was “++ (20%-49 % = ++)” and the Wells result is given as “+ (<20% = +)”.
Turning to “KYNEFSVSL (listed as Homo sapiens) [HEATR1-001]”, the Donors entry is given as “+++ (50%-70% = +++)” and the Wells result was “+ (<20% = +)”.

The values are drawn from US11607446B2, “Personalized immunotherapy against several neuronal and brain tumors” (Immatics Biotechnologies GmbH, priority 2013, dated 2023).
